# According to patent US20050256168A1, “Compositions for oral administration for the treatment of interferon-responsive disorders” (priority 2004, published 2005):
# Entries after “also recorded” stand apart in the source; their conditions may differ. Like-named read-outs stand apart in the source and are kept apart here.
# Key:
# glucosidase = assay: Glucosidase inhibitory activity; format: biochemical
# [1] = tested on: bovine viral diarrhea virus (BVDV); assay: BVDV antiviral activity in tissue cultures of infected MDBK cells; format: cell-based
# From the text: The IC50 for 6-O-nonyl-deoxynojirimycin, for example, bovine viral diarrhea virus (BVDV), in tissue cultures of BVDV infected MDBK cells, a surrogate of hepatitis C virus is 3 micro-molar.
# 2′,5′ OAS gene = assay: Induction of 2′,5′ OAS genes in Hep G2 cells by R/T PCR and Southern blot-R/T PCR; conditions: 16 hours; for induction of medium (p69) and small (p40) 2′,5′ OAS genes: R/T PCR
# Experimental: Hep G2 cells were treated with the indicated doses of A) alpha galactosyl ceramide or with B) N-9-oxadecyl-6-methyl-DGJ (b) for 16 hours and the induction of the medium (p69) and small (p40) isoforms of the […] OAS gene determined by R/T PCR. For each set, actin levels were also monitored as a control for loading. […] C) Southern blot- R/T PCR of RNA from Hep G2 cells treated with the indicated concentration of N-9-oxadecyl-6-methyl-DGJ or with 10^3 iU/mL interferon alpha (2a/2b) for 16 hours. Briefly, limited PCR was performed as described for 5, 10, 15 cycles and the PCR products transferred to nylon membrane before hybridization with a 1377 bp cDNA probe from nucleotides 1 to 1377 from the published OAS-40/46 gene (accession #X02874). Actin controls were performed in the same manner.
# The ability of alpha galactosyl ceramide and N-9-oxadecyl-6-methyl-DGJ to directly induce the innate host defense pathway in tissue culture was determined by analysis of the induction of the 2′-5′ oligoadenylate synthetase genes (2′,5′ OAS) using an RT PCR based methodology.
# Briefly, Hep G2 cells were incubated with either alpha galactose ceramide or the synthetic glycolipids shown in FIG. 1 for the desired length of time and the total RNA harvested using Tri-reagent as per manufactures directions (Gibco-BRL, Rockville, Md., USA). RNA samples were further purified using the Ambion DNA™ free kit, (Ambion, Inc., Austin, Tex., USA) before reverse transcriptase (RT) PCR with the PCR conditions and primers exactly as reported in the literature. PCR was performed in the absence of (RT) for 50 cycles to ensure no DNA contamination. Dilution experiments were used to ensure that PCR was within the linear range of the assay. Southern blot-R/T PCR of RNA from Hep G2 cells treated with the indicated concentration of N-9-oxadecyl-6-methyl-DGJ or with interferon alpha (2a/2b) for 16 hours was also performed to allow for quantification of induction. Briefly, limited PCR was performed as described above for 5, 10, 15 cycles and the PCR products transferred to nylon membrane. Hybridization was carried out using a 1377 bp cDNA probe from nucleotides I to 1377 from the published OAS40/46 gene (accession #X02874). OAS-40/46 specific bands were identified and quantified by phosphor image analysis [Bio-Rad, Hercules, Calif.].
# HBV [2] = conditions: from Antimicrob Agents Chemother. 2002; 46(12): 4004-4008; cited from earlier work
# HCV replicon = assay: HCV subgenomic replicon RNA level in 9-13 cells (Northern blot); format: cell-based, hepatitis C virus; conditions: 48 hours
# Experimental: A) Total RNA was isolated, resolved through agarose gels and hybridized to a radioactive probe specific for HCV NS5B. After washing, the blot was and re-probed with radioactive beta-actin specific sequences to control for loading of lanes.
# Beta-actin protein and RNA were used as controls in these experiments.
# 9-13 cells were seeded in T25 flask at 3×10^6 cells. […] Northern blot analysis was done to analyze HCV replicon RNA level.
# Briefly, 2 μg total RNA was electrophoresed through a 1.0% agarose gel containing 2.2 M formaldehyde, transferred to a nylon membrane and immobilized by Lw cross-linking (Stratagene). Hybridization was carried out using an alpha-[^32P]CTP-labeled probe with random primers on a 2 kb NS5B DNA fragment in a quick hybridization solution (Amersham Bioscience, Piscataway, N.J.) for 16 h at 65° C. The membranes were washed once in 2×SSC/0.1% SDS for 30 min at room temperature and twice in 0.1×SSC/0.1% SDS for 30 min at 65° C.
# [3] = tested on: HBsAg, core antigen, HBV polymerase; assay: Effect on HBsAg and core antigen production or secretion and HBV polymerase activity; format: cell-based, hepatitis B virus; conditions: at concentrations that were highly anti-viral
# From the text: Both alpha galactosyl ceramide and the “alkovirs”, described herein, have anti-hepatitis B virus activity (FIG. 2).
# This indicates both that the compounds were both well tolerated at these concentrations and that the anti-viral activity cannot be explained by a direct effect upon the synthesis of viral products but rather through the activation of a cellular defense mechanism.
# Hep G2 2.2.15 cells = assay: MTT toxicity test; format: cell-based
# Experimental: A) Alpha galactosyl ceramide inhibits HBV in vitro. […] Briefly, Hep G2 2.2.15 cells, which secrete hepatitis B virus, were either left untreated or treated with 10^3 iU/mL of interferon alpha (2a/2b) or 0.1 nM to 100 nM of alpha galactosyl ceramide for three days and the amount of HBV specific DNA detected in the culture medium using a method which discriminates between enveloped and non enveloped viral particles. The HBV rc DNA, which decreases with both interferon and alpha galactose ceramide treatment is indicated. […] Hep G2 2.2.15 cells were left untreated or treated with varying doses of the synthetic glycolipid N-9-oxadecyl-6-methyl-DGJ (0.8 μM to 25 μM) for 3 days and the level of HBV secreted into the culture medium detected as before. […] The HBV rc DNA, which decreases with N-9-oxadecyl-6-methyl-DGJ, interferon, and alpha galactosyl ceramide treatment is indicated. C-D) Cells treated with alpha-galactosyl ceramide or the synthetic glycolipid N-9-oxadecyl-6-methyl-DGJ were tested for viability using the standard MTT toxicity test. For panel C: X-axis: From left to right: Untreated cells; Alpha galactosyl ceramide at 10 μM, 5 μM, 2.5 μM, 1 μM, 0.5 μM, 0.1 μM. Y-axis, percent viability as compared to untreated group. For Panel D: X-axis: From left to right: Untreated cells; N-9-oxadecyl-6-methyl-DGJ at 2000 μM, 800 μM. 400 μM, 200 μM, 100 μM, 10 μm. Y-axis, percent viability as compared to untreated group.
# Toxicity was determined by mitochondrial toxicity testing (MTT) of cells that had been exposed to compounds in a manner similar to the anti-viral assays except cells were treated in 24 well trays. Briefly, Hep G2 2.2.15 cells were treated with drug as indicated in the figure legends for 3 days, the media removed and replaced with 100 μl of a 10 mg/ml solution of tetrazolium bromide [[3-[4,5-dimethylthiazol-2-yl]-2,5-diphenyltetrazolium bromide, Sigma Chemicals] for one hour at 37° C. Addition of 100-200 μl of dimethylsulfoxide (DMSO) led to color development. Supernatants were removed and placed in a 96 well tray for analysis. OD values were read at 590 nm.
# HBV [4] = assay: Secretion of enveloped HBV DNA into culture medium of Hep G2 2.2.15 cells; format: cell-based, hepatitis B virus; conditions: for IC50: Hep G2 2.2.15 cells, 3 days, read-out: IC50 (anti-viral, HBV); for secretion of enveloped HBV (HBV rc DNA in culture medium): Hep G2 2.2.15, 3 days, alpha galactosyl ceramide 0.1-100 nM, N-9-oxadecyl-6-methyl-DGJ 0.8-25 μM, interferon alpha 10^3 iU/mL
compound,measurement,setting,value
CCCCCCCCCOCC1NCC(O)C(O)C1O (centres unmarked) [6-O-nonyl-deoxynojirimycin],glucosidase inhibitory activity,glucosidase,no glucosidase inhibitory activity
same,IC50,"[1]; BVDV infected MDBK cells, surrogate of hepatitis C virus, read-out: IC50 against BVDV",3 µM
same,antiviral activity,"[1]; virus not named at b41, BVDV assumed",retains antiviral activity
CCOCCCCCCN1CC(O)C(O)C(O)C1C(C)O (centres unmarked) [N-7-oxanonyl-6-methyl-DGJ],"induction of medium (p69) and small (p40) 2′,5′ OAS genes","2′,5′ OAS gene","did not detectably induce 2′,5′ OAS gene expression"
same,anti-viral activity against hepatitis B virus,HBV [2],no anti-viral activity against hepatitis B virus; also recorded: limited anti viral activity against HBV
COCCCCCCCCN1CC(O)C(O)C(O)C1C(C)O (centres unmarked) [N-9-oxadecyl-6-methyl-DGJ],IC50,"HCV replicon; 9-13 cells, three separate experiments, read-out: IC50 for reduction of HCV RNA",1.5 µM
same,"fold induction of the 2′,5′ OAS gene","2′,5′ OAS gene; 70 μM, Southern blot-R/T PCR",20 fold
same,"induction of medium (p69) and small (p40) 2′,5′ OAS genes","2′,5′ OAS gene","induced only the small (p40) 2′,5′ OAS gene expression"
same,"fold increase in 2′,5′ OAS gene expression","2′,5′ OAS gene; lower concentrations (below 70 μM), dose dependent",2-15 fold
same,"effect upon HBsAg production or secretion, core antigen production or secretion or HBV polymerase activity",[3],Neither Alpha Galactosyl Ceramide or N-9-oxadecyl-6-methyl-DGJ had any Detectable Effect
same,CC50,Hep G2 2.2.15 cells,> 2000 µM
same,toxicity,Hep G2 2.2.15 cells,little or no toxicity
same,IC50,HBV [4],~1 µM
same,secretion of enveloped HBV (HBV rc DNA in culture medium),HBV [4],exerted anti-viral activity at varying doses
"CCCCCCCCCCCCCCCCCCCCCCCCCC(=O)N[C@@H](CO[C@H]1O[C@H](CO)[C@H](O)[C@H](O)[C@H]1O)[C@H](O)[C@H](O)CCCCCCCCCCCCCC [alpha galactosyl ceramide, reference compound]","induction of medium (p69) and small (p40) 2′,5′ OAS genes","2′,5′ OAS gene","induced only the small (p40) 2′,5′ OAS gene expression"
same,"effect upon HBsAg production or secretion, core antigen production or secretion or HBV polymerase activity",[3],Neither Alpha Galactosyl Ceramide or N-9-oxadecyl-6-methyl-DGJ had any Detectable Effect
same,toxicity,Hep G2 2.2.15 cells; FIG. 2-3,little or no toxicity
same,CC50,"Hep G2 2.2.15 cells; Hep G2 2.2.15 cells, 3 days, MTT, read-out: CC50",8 µM
same,IC50,HBV [4],~0.0004 µM
same,secretion of enveloped HBV (HBV rc DNA in culture medium),HBV [4],inhibited the secretion of enveloped HBV
interferon alpha,replication of HCV RNA in 9-13 cells,HCV replicon,sensitive to interferon alpha
same,"induction of medium (p69) and small (p40) 2′,5′ OAS genes","2′,5′ OAS gene","potent inducer of both the medium (p69) and small (p40) 2′,5′ OAS genes"
same,secretion of enveloped HBV (HBV rc DNA in culture medium),HBV [4],inhibits secretion effectively
